US9340577B2, “HLA binding motifs and peptides and their uses” (priority 1992, dated 2016)
pIC50: −log10 of the molar value. Where two headings read alike, the source gives them in different places. No end group written: not given here.

Assays:
Test in all cases: biochemical
DR1 (DRB1*0101) = DR1 (DRB1*0101) (Homo sapiens, UniProt P01903+P01911, A100R/D57E/F55L/F60I/F76Y/I96L/L162R/M171V/P40L/Q125E/R42F/V115G/Y59C); type: binding
DR4w4 (DRB1*0401) = DR4w4 (DRB1*0401) (Homo sapiens, UniProt P01903+P01911, A100K/A169T/F76Y/I96L/K127E/L162R/M171V/N62H/P40V/Q125Y/R42H/S133A/S149N/S66Y/V115G/V209L/W38E); type: binding
DRB1*1101 = DRB1*1101 (Homo sapiens, UniProt P01903+P01911, A100R/A169T/A87E/I96F/K41T/L162R/M171V/P40S/Q125H/Q178H/Q39Y/Q99D/R42S/S66Y/T262R/V115G/W38E)
DRB3*0101 = DRB3*0101 (Homo sapiens, UniProt P01903+P79483); type: binding
DRB1*0901 = DRB1*0901 (Homo sapiens, UniProt P01903+P01911, A100R/A103E/D57H/D86V/F55Y/F60I/F76Y/I96F/K127E/L162R/M171V/P40D/Q125H/Q99R/R33Q/R42F/S133A/S66N/T210M/V115G/W38K/Y107V/Y59G/Y89S); type: binding
DRB1*0301 = DRB1*0301 (Homo sapiens, UniProt P01903+P01911, A100K/A102G/A103R/A169T/F55Y/I96L/K41T/L162R/M171V/P40S/Q125H/Q178H/Q39Y/R42S/S66N/T106N/T262R/W38E/Y61H); type: binding
DRB1*1501 = DRB1*1501 (Homo sapiens, UniProt P01903+P01911); type: binding
DRB1*0802 = DRB1*0802 (Homo sapiens, UniProt P01903+P01911, A100R/A103L/A169T/F76Y/H45Y/I96F/K41T/L162R/M171V/P40S/Q125H/Q178H/Q39Y/Q99D/R218S/R42G/S66Y/V115G/W38E); type: binding
DRB4*0101 = DRB4*0101 (Homo sapiens, UniProt P01903+P13762, G164S); type: binding
DR7 (DRB1*0701) = DR7 (DRB1*0701) (Homo sapiens, UniProt P01903+P01911, A100R/A102G/A103Q/D57E/D86V/E43K/F76Y/K127E/L162R/M171V/P40G/Q125H/Q99D/R33Q/R42Y/R54Q/S133A/S66F/T210M/V115G/Y107V/Y59L/Y89S); type: binding
DRB1*1302 = DRB1*1302 (Homo sapiens, UniProt P01903+P01911, A100E/A169T/K41T/L162R/M171V/P40S/Q125H/Q178H/Q39Y/Q99D/R42S/S66N/T262R/V115G/W38E/Y61H); type: binding
DRB5*0101 = DRB5*0101 (Homo sapiens, UniProt P01903+Q30154)
DRB1*0405 = DRB1*0405 (Homo sapiens, UniProt P01903+P01911, A100R/A169T/D86S/F76Y/I96L/K127E/L162R/M171V/N62H/P40V/Q125Y/R42H/S133A/S149N/S66Y/V115G/V209L/W38E); type: binding

Chain of DRB1*1302 (P01903 26-254 limits assumed, other chains not shown): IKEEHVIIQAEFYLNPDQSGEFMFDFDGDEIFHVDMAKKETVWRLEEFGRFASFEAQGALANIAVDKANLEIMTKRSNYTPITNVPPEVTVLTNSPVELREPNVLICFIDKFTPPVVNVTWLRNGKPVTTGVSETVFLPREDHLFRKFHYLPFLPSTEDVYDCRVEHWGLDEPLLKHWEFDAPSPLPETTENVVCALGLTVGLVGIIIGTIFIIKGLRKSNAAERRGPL
Chain of DRB1*1101 (P01903 26-254 limits assumed, other chains not shown): as above
Chain of DRB1*0301 (P01903 26-254 limits assumed, other chains not shown): as above

| Compound | pIC50 (DR1 (DRB1*0101)) | pIC50 (DR4w4 (DRB1*0401)) | pIC50 (DRB1*1101; Binding affinity DRB1 *1101) | pIC50 (DRB3*0101) | pIC50 (DRB1*0901) | pIC50 (DRB1*0301) | pIC50 (DRB1*1501) | pIC50 (DRB1*0802) | pIC50 (DRB4*0101) | pIC50 (DR7 (DRB1*0701)) | pIC50 (DRB1*1302) | pIC50 (DRB5*0101; Binding affinity DRB5 *0101) | pIC50 (DRB1*0405) | pIC50 (DRB1*1101) | pIC50 (DRB5*0101) |
| --- | --- | --- | --- | --- | --- | --- | --- | --- | --- | --- | --- | --- | --- | --- | --- |
| CSCC[C@H](NC(=O)[C@H](CS)NC(=O)[C@H](CC(N)=O)NC(=O)[C@H](CC(=O)O)NC(=O)[C@H](CCCCN)NC(=O)[C@H](CC(N)=O)NC(=O)CN)C(=O)N[C@H](C(=O)N[C@@H](Cc1ccc(O)cc1)C(=O)N[C@H](C(=O)N[C@@H](C)C(=O)N[C@@H](Cc1c[nH]c2ccccc12)C(=O)N[C@@H](CC(=O)O)C(=O)N[C@@H](CO)C(=O)N[C@H](C(=O)O)C(C)C)C(C)C)[C@@H](C)O [Peptide 1601.09] | 5.65 | 5.64 | < 4.70 | < 4.70 | < 4.70 | 5.05 | 6.34 | 4.94 | 7.39 | 5.36 | < 4.70 | < 4.70 | – | – | – |
| CC(C)[C@H](NC(=O)[C@H](CCC(=O)O)NC(=O)[C@H](Cc1c[nH]c2ccccc12)NC(=O)[C@@H](NC(=O)CNC(=O)[C@@H](NC(=O)[C@H](CC(N)=O)NC(=O)CNC(=O)[C@H](Cc1ccc(O)cc1)NC(=O)[C@H](CCCCN)NC(=O)[C@@H](N)CCC(=O)O)[C@@H](C)O)[C@@H](C)O)C(=O)N[C@@H](Cc1c[nH]cn1)C(=O)N[C@@H](Cc1ccccc1)C(=O)NCC(=O)N[C@@H](CC(N)=O)C(=O)O [Peptide 1601.11] | 6.30 | – | < 4.70 | < 4.70 | 5.60 | < 4.70 | < 4.70 | < 4.70 | < 4.70 | 7.04 | < 4.70 | < 4.70 | 4.83 | – | – |
| CC[C@H](C)[C@H](NC(=O)[C@@H](NC(=O)[C@@H]1CCCN1C(=O)[C@@H](NC(=O)[C@@H](NC(=O)[C@H](CC(N)=O)NC(=O)CNC(=O)[C@H](CO)NC(=O)[C@H](CS)NC(=O)[C@H](CC(C)C)NC(=O)[C@H](CCCCN)NC(=O)[C@H](CCCNC(=N)N)NC(=O)[C@H](CCCNC(=N)N)NC(=O)[C@@H](N)CCCCN)[C@@H](C)O)[C@@H](C)O)[C@@H](C)CC)C(=O)N[C@@H](Cc1c[nH]cn1)C(=O)O [Peptide 1601.16] | – | 6.51 | < 4.70 | < 4.70 | 7.21 | 5.23 | 5.03 | 5.32 | < 4.70 | – | 8.12 | 5.30 | – | – | – |
| CC[C@H](C)[C@H](NC(=O)[C@H](C)NC(=O)[C@@H](NC(=O)[C@@H](NC(=O)[C@H](CC(N)=O)NC(=O)[C@H](CC(C)C)NC(=O)[C@H](Cc1ccccc1)NC(=O)[C@H](CCCCN)NC(=O)[C@@H](NC(=O)[C@H](CCCNC(=N)N)NC(=O)[C@H](CCC(N)=O)NC(=O)[C@H](CCCCN)NC(=O)[C@@H](N)CCC(=O)O)[C@@H](C)O)[C@@H](C)O)C(C)C)C(=O)N1CCC[C@H]1C(=O)N[C@@H](CC(=O)O)C(=O)O [Peptide 1601.19] | 7.21 | 5.35 | – | < 4.70 | 6.55 | 4.93 | < 4.70 | < 4.70 | 5.19 | 6.91 | – | – | – | < 4.70 | < 4.70 |
| CC[C@H](C)[C@H](NC(=O)[C@@H](NC(=O)[C@@H]1CCCN1C(=O)[C@@H](NC(=O)[C@@H](NC(=O)[C@H](CC(N)=O)NC(=O)CNC(=O)[C@H](CO)NC(=O)[C@H](CS)NC(=O)[C@@H](NC(=O)[C@H](CCCCN)NC(=O)[C@@H](N)CCCNC(=N)N)C(C)C)[C@@H](C)O)[C@@H](C)O)[C@@H](C)CC)C(=O)N[C@@H](Cc1c[nH]cn1)C(=O)N[C@@H](CC(C)C)C(=O)N[C@@H](CCCCN)C(=O)O [Peptide 1601.43] | 5.88 | – | < 4.70 | < 4.70 | 5.95 | < 4.70 | 5.09 | 5.09 | 5.68 | – | 7.96 | 4.74 | 5.04 | – | – |
| DFLNTVKIPNTVSVS [Peptide 1601.28] | 6.11 | 6.30 | 6.56 | < 4.70 | 6.43 | < 4.70 | 5.66 | 5.68 | – | 6.33 | 6.88 | < 4.70 | 4.93 | – | – |
| GRVNTHVHNPLLCSS [Peptide 1601.34] | 6.06 | < 4.70 | < 4.70 | < 4.70 | 5.48 | 5.00 | – | 5.57 | 5.22 | 5.22 | 6.06 | < 4.70 | – | – | – |
| NCNSNTTPIVHLKGD [Peptide 1601.08] | 4.94 | 5.51 | < 4.70 | < 4.70 | 5.50 | < 4.70 | < 4.70 | < 4.70 | 5.58 | – | – | < 4.70 | < 4.70 | – | – |
